Assays:
Assay type in all cases: cell-based
[1] = test system: MKN45; assay: Anti-proliferation assay (CellTiter-Glo 2.0), combination index, MKN45; conditions: for Description: combination effect
Description: (§1) Cell lines were obtained from ATCC or Health Science Research Resources Bank.
(§2) Each cell lines were collected by ordinary method, then suspended in indicated medium containing 10% fetal bovine serum in table 3. The number of cells seeded per well was set to 500 cells/20 μL. […] The concentration of each anti-cancer reagents set to 8 concentrations including 0 nM. After adding the medicine to the cells, the cells were further incubated at 37° C. for 3 days under 5% CO2. Cell survival rates were calculated by adding 20 μL of CellTiter-Glo(registered trademark) 2. 0 (Promega) solution to each well, incubating the cells at room temperature for 10 minutes, and then measuring the chemiluminescence intensity of each well using a plate reader (ARVO).
(§3) A combination index (CI) value at each combined concentration of the medicines was determined.

[2] = test system: RT4; assay: Anti-proliferation assay (CellTiter-Glo 2.0), combination index, RT4; conditions: for Description: combination effect
Description: as §1, §2, §3

[3] = test system: NCI-H358; assay: Anti-proliferation assay (CellTiter-Glo 2.0), combination index, NCI-H358
Description: as §1, §2, §3

[4] = Compound 1 13.7 nmol/L + Oxalliplatin 370 nmol/L, molar ratio 1:27
[5] = Compound 1 41.2 nmol/L + Oxalliplatin 1110 nmol/L, molar ratio 1:27
[6] = Compound 1 123 nmol/L + Oxalliplatin 3330 nmol/L, molar ratio 1:27
[7] = Compound 1 370 nmol/L + Oxalliplatin 10000 nmol/L, molar ratio 1:27
[8] = Compound 1 4.57 nmol/L + Oxalliplatin 41.2 nmol/L, molar ratio 1:9
[9] = Compound 1 123 nmol/L + FTD 3330 nmol/L, molar ratio 1:27
[10] = Compound 1 370 nmol/L + FTD 10000 nmol/L, molar ratio 1:27
[11] = Compound 1 370 nmol/L + FTD 123 nmol/L, molar ratio 1:0.3
[12] = Compound 1 1110 nmol/L + FTD 370 nmol/L, molar ratio 1:0.3
[13] = Compound 1 3330 nmol/L + FTD 1110 nmol/L, molar ratio 1:0.3
[14] = Compound 1 41.2 nmol/L + Cisplatin 1110 nmol/L, molar ratio 1:27
[15] = Compound 1 123 nmol/L + Cisplatin 3330 nmol/L, molar ratio 1:27
[16] = Compound 1 370 nmol/L + Cisplatin 10000 nmol/L, molar ratio 1:27
[17] = Compound 1 4.57 nmol/L + Cisplatin 370 nmol/L, molar ratio 1:81
[18] = Compound 1 13.7 nmol/L + Cisplatin 1110 nmol/L, molar ratio 1:81
[19] = Compound 1 13.7 + combination drug 123 nmol/L (1:9)
[20] = Compound 1 41.2 + combination drug 370 nmol/L (1:9)
[21] = Compound 1 123 + combination drug 1110 nmol/L (1:9)
[22] = Compound 1 370 + combination drug 3330 nmol/L (1:9)
[23] = Compound 1 4.57 + combination drug 41.2 nmol/L (1:9)
[24] = Compound 1 1110 + combination drug 10000 nmol/L (1:9)
[25] = Compound 1 123 + combination drug 41.2 nmol/L (1:0.3)
[26] = Compound 1 370 + combination drug 123 nmol/L (1:0.3)
[27] = Compound 1 1110 + combination drug 370 nmol/L (1:0.3)
[28] = Compound 1 3330 + combination drug 1110 nmol/L (1:0.3)
[29] = Compound 1 10000 + combination drug 3330 nmol/L (1:0.3)
[30] = Compound 1 41.2 nmol/L + SN-38 2.06 nmol/L, molar ratio 1:0.05
[31] = Compound 1 123 nmol/L + SN-38 6.17 nmol/L, molar ratio 1:0.05
[32] = Compound 1 370 nmol/L + SN-38 18.5 nmol/L, molar ratio 1:0.05
[33] = Compound 1 1110 nmol/L + SN-38 55.6 nmol/L, molar ratio 1:0.05
[34] = Compound 1 4.57 nmol/L + SN-38 0.69 nmol/L, molar ratio 1:0.1
[35] = Compound 1 13.7 nmol/L + SN-38 2.06 nmol/L, molar ratio 1:0.1
[36] = Compound 1 41.2 nmol/L + SN-38 6.17 nmol/L, molar ratio 1:0.1
[37] = Compound 1 123 nmol/L + SN-38 18.5 nmol/L, molar ratio 1:0.1
[38] = Compound 1 370 nmol/L + SN-38 55.6 nmol/L, molar ratio 1:0.1
[39] = Compound 1 1110 nmol/L + SN-38 167 nmol/L, molar ratio 1:0.1
[40] = Compound 1 3330 nmol/L + SN-38 500 nmol/L, molar ratio 1:0.1
[41] = Compound 1 12.3 nmol/L + Paclitaxel 1.46 nmol/L, molar ratio 1:0.1
[42] = Compound 1 37.0 nmol/L + Paclitaxel 4.39 nmol/L, molar ratio 1:0.1
[43] = Compound 1 111 nmol/L + Paclitaxel 13.2 nmol/L, molar ratio 1:0.1
[44] = Compound 1 333 nmol/L + Paclitaxel 39.5 nmol/L, molar ratio 1:0.1
[45] = Compound 1 1000 nmol/L + Paclitaxel 119 nmol/L, molar ratio 1:0.1
[46] = Compound 1 4.12 nmol/L + Paclitaxel 0.14 nmol/L, molar ratio 1:0.03
[47] = Compound 1 12.3 nmol/L + Paclitaxel 0.41 nmol/L, molar ratio 1:0.03
[48] = Compound 1 37.0 nmol/L + Paclitaxel 1.23 nmol/L, molar ratio 1:0.03
[49] = Compound 1 111 nmol/L + Paclitaxel 3.70 nmol/L, molar ratio 1:0.03
[50] = Compound 1 333 nmol/L + Paclitaxel 11.1 nmol/L, molar ratio 1:0.03
[51] = Compound 1 1000 nmol/L + Paclitaxel 33.3 nmol/L, molar ratio 1:0.03

Compound: O=C1[O][Pt]2([NH][C@@H]3CCCC[C@H]3[NH]2)[O]C1=O [Oxalliplatin]
- CI [1, 4]: 0.571
- Fa [1, 4]: 0.4748
- CI [1, 5]: 0.322
- Fa [1, 5]: 0.6458
- CI [1, 6]: 0.273
- Fa [1, 6]: 0.7808
- CI [1, 7]: 0.216
- Fa [1, 7]: 0.9038
- CI [2, 8]: 0.932
- Fa [2, 8]: 0.2140
- CI [3, 4]: 0.699
- Fa [3, 4]: 0.1376
- CI [3, 5]: 0.424
- Fa [3, 5]: 0.3478
- CI [3, 6]: 0.623
- Fa [3, 6]: 0.4795
- Description ([3]; combination effect, Compound 1 + Oxalliplatin, molar ratio 1:27): Synergy (0.3-0.7)

Compound: O=c1[nH]c(=O)n([C@H]2C[C@H](O)[C@@H](CO)O2)cc1C(F)(F)F [FTD]
- CI [1, 9]: 0.716
- Fa [1, 9]: 0.6654
- CI [1, 10]: 0.494
- Fa [1, 10]: 0.8785
- Description ([1]; Compound 1 + FTD, molar ratio 1:27): Synergy (0.3-0.7)
- CI [2, 11]: 0.468
- Fa [2, 11]: 0.4667
- CI [2, 12]: 0.676
- Fa [2, 12]: 0.6009
- CI [2, 13]: 0.618
- Fa [2, 13]: 0.7931
- Description ([2]; Compound 1 + FTD, molar ratio 1:0.3): Synergy (0.3-0.7)

Compound: N.N.[Cl][Pt][Cl] [Cisplatin]
- CI [1, 14]: 0.694
- Fa [1, 14]: 0.2057
- CI [1, 15]: 0.626
- Fa [1, 15]: 0.5148
- CI [1, 16]: 0.681
- Fa [1, 16]: 0.8006
- Description ([1]; Compound 1 + Cisplatin, molar ratio 1:27): Synergy (0.3-0.7)
- CI [2, 17]: 0.632
- Fa [2, 17]: 0.0886
- CI [2, 18]: 0.539
- Fa [2, 18]: 0.2585
- Description ([2]; Compound 1 + Cisplatin, molar ratio 1:81): Synergy (0.3-0.7)

Compound: Cn1cnc2c(F)c(Nc3ccc(Br)cc3F)c(C(=O)NOCCO)cc21 [Binimetinib]
- CI [1, 19]: 0.630
- Fa [1, 19]: 0.2390
- CI [1, 20]: 0.387
- Fa [1, 20]: 0.5003
- CI [1, 21]: 0.212
- Fa [1, 21]: 0.7765
- CI [1, 22]: 0.360
- Fa [1, 22]: 0.8408
- CI [3, 23]: 0.883
- Fa [3, 23]: 0.0312
- CI [3, 19]: 0.223
- Fa [3, 19]: 0.1821
- CI [3, 20]: 0.196
- Fa [3, 20]: 0.3954
- CI [3, 21]: 0.222
- Fa [3, 21]: 0.6241
- CI [3, 22]: 0.349
- Fa [3, 22]: 0.7635
- CI [3, 24]: 0.673
- Fa [3, 24]: 0.8387

Compound: O=C(c1ccc(F)c(F)c1Nc1ccc(I)cc1F)N1CC(O)([C@@H]2CCCCN2)C1 [Cobimetinib]
- CI [1, 19]: 0.806
- Fa [1, 19]: 0.2247
- CI [1, 20]: 0.459
- Fa [1, 20]: 0.6457
- CI [1, 21]: 0.616
- Fa [1, 21]: 0.8262
- Description (combinatory effect by CI) ([1]; Compound 1:combination drug molar ratio 1:9): Synergy (0.3-0.7)
- CI [3, 25]: 0.334
- Fa [3, 25]: 0.3595
- CI [3, 26]: 0.172
- Fa [3, 26]: 0.5769
- CI [3, 27]: 0.165
- Fa [3, 27]: 0.7439
- CI [3, 28]: 0.258
- Fa [3, 28]: 0.8360
- CI [3, 29]: 0.585
- Fa [3, 29]: 0.8699

Compound: SN-38
- CI [1, 30]: 0.750
- Fa [1, 30]: 0.3061
- CI [1, 31]: 0.390
- Fa [1, 31]: 0.6496
- CI [1, 32]: 0.261
- Fa [1, 32]: 0.8647
- CI [1, 33]: 0.536
- Fa [1, 33]: 0.8972
- CI [2, 34]: 0.322
- Fa [2, 34]: 0.2202
- CI [2, 35]: 0.554
- Fa [2, 35]: 0.2912
- CI [2, 36]: 0.621
- Fa [2, 36]: 0.4442
- CI [2, 37]: 0.472
- Fa [2, 37]: 0.6700
- CI [2, 38]: 0.554
- Fa [2, 38]: 0.7937
- CI [2, 39]: 0.310
- Fa [2, 39]: 0.9240
- CI [2, 40]: 0.064
- Fa [2, 40]: 0.9872

Compound: CC(=O)O[C@H]1C(=O)[C@@]2(C)[C@H]([C@H](OC(=O)c3ccccc3)[C@]3(O)C[C@H](OC(=O)[C@H](O)[C@@H](NC(=O)c4ccccc4)c4ccccc4)C(C)=C1C3(C)C)[C@]1(OC(C)=O)CO[C@@H]1C[C@@H]2O [Paclitaxel]
- CI [1, 41]: 0.106
- Fa [1, 41]: 0.4372
- CI [1, 42]: 0.222
- Fa [1, 42]: 0.5083
- CI [1, 43]: 0.307
- Fa [1, 43]: 0.6577
- CI [1, 44]: 0.409
- Fa [1, 44]: 0.7864
- CI [1, 45]: 0.957
- Fa [1, 45]: 0.8179
- CI [2, 46]: 0.690
- Fa [2, 46]: 0.1066
- CI [2, 47]: 0.828
- Fa [2, 47]: 0.1742
- CI [2, 48]: 0.386
- Fa [2, 48]: 0.4157
- CI [2, 49]: 0.366
- Fa [2, 49]: 0.6114
- CI [2, 50]: 0.371
- Fa [2, 50]: 0.7739
- CI [2, 51]: 0.681
- Fa [2, 51]: 0.8306
- Description ([2]; Compound 1 + Paclitaxel, molar ratio 1:0.03): Synergy (0.3-0.7)

Reference: patent publication US20230146795A1, “ENHANCEMENT OF ANTI-TUMOR ACTIVITY OF SHP2 INHIBITOR PYRIMIDINONE IN COMBINATION WITH NOVEL CANCER MEDICINES IN CANCERS” (TAIHO PHARMACEUTICAL CO., LTD., priority 2020, published 2023)
